By EC50 is commonly meant the concentration needed to bring the measured effect to its halfway point. For orientation: Ki means the dissociation constant of the complex between target and ligand, obtained from inhibition or displacement.

The values that follow come from ChEMBL document CHEMBL5375966, “Exploiting the "Hot-Spots" of Hsp70-Bim Protein-Protein Interaction to Optimize the 1-Oxo-1H-phenalene-2,3-dicarbonitrile Analogues as Specific Hsp70-Bim Inhibitors” (J Med Chem, 2023).

Data set [1] is described as follows: Inhibition of Bim (unknown origin)- N-terminal 6His-tagged human recombinant HSP70 NBD (1 to 383 residues) expressed in Escherichia coli BL21 (DE3) protein protein interaction assessed as suppression of BimBH3-stimulated HSP70 ATPase activity.
In data set [2] the test system is K562. In words: Induction of apoptosis in human K562 cells incubated for 24 hrs by annexin V/PI staining based flow cytometry analysis. It counts as functional, cell-based. The following applies: K562, 24 h.
The subject of the next data set is BV-173. Briefly: Induction of apoptosis in human BV-173 cells incubated for 24 hrs by annexin V/PI staining based flow cytometry analysis. It counts as functional, cell-based. The following applies: BV-173, 24 h. A general note: In flow cytometry, cells or beads pass a laser one at a time.
Data set [3] in a line: Induction of apoptosis in human Imatinib-resistant K562-R3 cells incubated for 24 hrs by annexin V/PI staining based flow cytometry analysis. It counts as functional. The following applies: Imatinib-resistant K562-R3 cell.
Data set [4] in a line: Inhibition of Fam-labeled BimBH3 peptide binding to N-terminal 6His-tagged human recombinant HSP70 NBD (1 to 383 residues) expressed in Escherichia coli BL21 (DE3) assessed as inhibition constant incubated for 24 hrs by fluorescence polarization assay. A general note: Fluorescence polarisation rises when a labelled molecule tumbles more slowly, as on binding a larger partner.

In another data set the test system is HEK293. Briefly: Induction of apoptosis in human HEK293 cells assessed as apoptotic rate at 15 uM incubated for 24 hrs by annexin V/PI staining based flow cytometry analysis relative to control. The following applies: hek293, 24 h. It counts as toxicity, cell-based.
The next data set concerns BaF3. Briefly: Induction of apoptosis in mouse BaF3 cells assessed as apoptotic rate at 15 uM incubated for 24 hrs by annexin V/PI staining based flow cytometry analysis relative to control. The class given is toxicity, cell-based. The following applies: baf3, 24 h.
The test system of data set [5] is K562. In words: Inhibition of HSP70-Bag3 protein protein interaction in human K562 cells at 10 uM incubated for 12 hrs by Co-IP analysis. It counts as cell-based.
Data set [6] in a line: Induction of apoptosis in human HEK293 cells incubated for 24 hrs by annexin V/PI staining based flow cytometry analysis. The class given is toxicity, cell-based.
Data set [7] is described as follows: Induction of apoptosis in mouse BaF3 cells incubated for 24 hrs by annexin V/PI staining based flow cytometry analysis. It counts as toxicity, cell-based.
The species named for the next data set is Homo sapiens. In words: Inhibition of N-terminal 6His-tagged human recombinant HSP70 NBD (1 to 383 residues) expressed in Escherichia coli BL21 (DE3) ATPase activity.

SMILES strings stand for the structures. Active and inactive are the calls of the source. No cut-off for these calls is given here.

For the compound `CN(C)CCNC1=C(C#N)C(=O)c2cccc3c(SC4CCCCC4)ccc1c23`, in data set [1], the inhibition result is “Active”. In addition, the EC50 in the data set on K562 [2] came to 2.4 µM; with BV-173, 1.1 µM; in data set [3], 0.45 µM. Moreover, the Ki in data set [4] is 0.57 µM. Besides, the Activity in the data set on HEK293 is more than 10%; with BaF3, less than 10%.

In the case of `COC(=O)CCNC1=C(C#N)C(=O)c2cccc3c(SCCO)ccc1c23`, the inhibition result in [1] was “Active”. Besides, the Ki in [4] was more than 20 µM.

For the compound `COC(=O)CCNC1=C(C#N)C(=O)c2cccc3c(Sc4cccc(N)c4)ccc1c23`, the inhibition entry in [1] is “Active”. In addition, the Ki in data set [4] was determined as 18.9 µM.

Consider `COC(=O)CCNC1=C(C#N)C(=O)c2cccc3c(Sc4ccc(C(C)(C)C)cc4)ccc1c23`, for which, in data set [1], the inhibition result is “Active”. Also, the Ki in data set [4] is more than 20 µM.

As for `COC(=O)CCNC1=C(C#N)C(=O)c2cccc3c(Sc4ccc(Br)cc4)ccc1c23`, the inhibition entry in data set [1] was “Active”. Moreover, in data set [4], the Ki turned out to be 2.5 µM.

`N#CC1=C(NCCC(=O)NCc2ccccc2)c2ccc(SC3CCCCC3)c3cccc(c23)C1=O`: the inhibition result in data set [1] is “Active”. In addition, in [4], the Ki came out at 14.4 µM.

As for `CCn1c(=O)/c(=C2\Sc3ccccc3N2C)s/c1=C\c1cccc[n+]1CC`, the inhibition result in the data set on K562 [5] is “Active”.

In the case of `COC(=O)CCNC1=C(C#N)C(=O)c2cccc3c(SCCc4ccccc4)ccc1c23`, the inhibition entry in data set [1] was “Active”. The Ki in [4] is more than 20 µM.

As to `N#Cc1ccc(COC[C@H]2O[C@@H](n3c(NCc4ccc(Cl)c(Cl)c4)nc4c(N)ncnc43)[C@H](O)[C@@H]2O)cc1`, the EC50 amounted to 7.8 µM in the data set on K562 [2], 5.8 µM in the data set on BV-173 and 8.5 µM in [3]. Besides, the figures for the 50% effective concentration (EC50) at 24 h in data set [6] and in [7] were 7.7 µM and 5.5 µM, respectively. In data set [4], the Ki is more than 20 µM. The inhibition result in the data set filed under Homo sapiens was “Active”.

For `COC(=O)CCNC1=C(C#N)C(=O)c2cccc3c(Sc4ccc(N)cc4)ccc1c23`, the inhibition result in data set [1] is “Active”. In data set [4], the Ki was more than 20 µM.

On to `N#CC1=C(NCCN2CCN(Cc3ccccc3)CC2)c2ccc(SC3CCCCC3)c3cccc(c23)C1=O`, for which the inhibition entry in data set [1] was “Active”. Further, the Ki in [4] was more than 20 µM.

With `COC(=O)CCNC1=C(C#N)C(=O)c2cccc3c(SC4CCCCC4)ccc1c23`, the inhibition entry in [1] was “Active”. Besides, the half-maximal effective concentration (EC50) with K562 [2] turned out to be 9.4 µM; in the data set on BV-173 it was 6.1 µM; in data set [3], 1.7 µM. Further, the Ki in [4] stood at 2.6 µM. Also, the Activity in the data set with HEK293 and with BaF3 was less than 10% throughout.

Regarding `N#CC1=C(NCCC(=O)O)c2ccc(SC3CCCCC3)c3cccc(c23)C1=O`, the inhibition result in data set [1] is “Active”. Moreover, the Ki in [4] is more than 20 µM.

In the case of `CCOC(=O)CN1CCN(CCNC2=C(C#N)C(=O)c3cccc4c(SC5CCCCC5)ccc2c34)CC1`, in data set [1], the inhibition entry is “Active”. For the same compound, in data set [4], the inhibitory constant (Ki) turned out to be 4.1 µM.

On to `CCCCSc1ccc2c3c(cccc13)C(=O)C(C#N)=C2NCCC(=O)OC`, for which, in data set [1], the inhibition entry is “Active”. For the same compound, the inhibition constant (Ki) in [4] was 14.5 µM.

`COC(=O)CCNC1=C(C#N)C(=O)c2cccc3c(Sc4ccccc4)ccc1c23`: the inhibition entry in data set [1] was “Active”. In addition, in data set [4], the Ki stood at 4.5 µM.

`N#CC1=C(NCCN2CCOCC2)c2ccc(SC3CCCCC3)c3cccc(c23)C1=O`: in data set [1], the inhibition entry is “Active”. Also, in [4], the Ki was 1.8 µM.

`COC(=O)CCNC1=C(C#N)C(=O)c2cccc3c(Sc4ccc(C(C)C)cc4)ccc1c23`: the inhibition entry in data set [1] was “Active”. The Ki in data set [4] worked out at 16.2 µM.

For the compound `COC(=O)CCNC1=C(C#N)C(=O)c2cccc3c(Sc4ccc(C)cc4)ccc1c23`, the inhibition entry in [1] was “Active”. Moreover, the Ki in [4] was found to be 3.4 µM.

For the compound `CCCCNC(=O)CCNC1=C(C#N)C(=O)c2cccc3c(SC4CCCCC4)ccc1c23`, the inhibition result in [1] is “Active”. Further, the Ki in [4] was 0.88 µM.

With `COC(=O)CCNC1=C(C#N)C(=O)c2cccc3c(SC4CCCC4)ccc1c23`, in data set [1], the inhibition result is “Active”. The Ki in data set [4] came out at 2.2 µM.

With `N#CC1=C(NCCC(=O)NC2CCCCC2)c2ccc(SC3CCCCC3)c3cccc(c23)C1=O`, the inhibition entry in data set [1] was “Active”. Also, the Ki in data set [4] was 11 µM.

Consider `CCN(CC)CCNC1=C(C#N)C(=O)c2cccc3c(SC4CCCC4)ccc1c23`, for which the inhibition entry in [1] was “Active”. Also, the Ki in data set [4] stood at 0.32 µM.

On to `CCNCCNC1=C(C#N)C(=O)c2cccc3c(SC4CCCCC4)ccc1c23`, for which, in data set [1], the inhibition result was “Active”. In [4], the Ki is 0.72 µM.
